The record followed here is patent US20240076297A1, “ADENOSINE A2A AND A2B RECEPTOR DUAL ANTAGONISTS FOR IMMUNO-ONCOLOGY” (Merck Sharp & Dohme LLC, priority 2020, published 2024).

For orientation: IC50 means the concentration needed to halve the response being measured.

Sequence of human A2A adenosine receptor (P29274 whole entry): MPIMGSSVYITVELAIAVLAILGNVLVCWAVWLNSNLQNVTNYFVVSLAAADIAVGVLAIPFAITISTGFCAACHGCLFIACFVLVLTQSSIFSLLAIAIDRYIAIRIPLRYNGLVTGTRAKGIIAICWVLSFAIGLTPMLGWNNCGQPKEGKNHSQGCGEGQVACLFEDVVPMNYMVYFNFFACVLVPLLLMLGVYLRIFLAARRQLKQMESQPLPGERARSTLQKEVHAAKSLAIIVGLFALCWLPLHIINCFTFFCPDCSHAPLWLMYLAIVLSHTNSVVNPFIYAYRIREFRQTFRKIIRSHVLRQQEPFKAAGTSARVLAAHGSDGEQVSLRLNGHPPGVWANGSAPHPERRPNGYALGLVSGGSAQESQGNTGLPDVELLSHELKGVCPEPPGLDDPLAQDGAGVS

The assay concerns the target human A2A adenosine receptor (Homo sapiens (Human), UniProt P29274). As to the kind of experiment: A2A binding affinity using SPA, Method (B). The settings on record: [3H] SCH58261, A2A receptor-expressing membranes. The text has this: Method (A) describes the procedure used to measure A2A binding affinity using radioligand binding. Method (B) describes the procedure used to measure A2A binding affinity using SPA technology. The method used to measure A2B binding affinity is also described below. The method used to determine the A2A IC50 value reported for each compound in the table is indicated next to the reported value. The A2B IC50 value measured using the A2B binding affinity assay is shown in the table next to the compound under the corresponding A2A value.
The A2A receptor affinity binding assay measured the amount of binding of a tritiated ligand with high affinity for the A2A adenosine receptor to membranes made from HEK293 or CHO cells recombinantly expressing the human A2A adenosine receptor, in the presence of varying concentrations of a compound of the invention. The data were generated using either filtration binding or a homogenous scintillation proximity assay (SPA).
Method (B): Measurement of A2A Binding Affinity Using SPA
Binding affinity using SPA was conducted as follows. Test compounds (50 nL) were dispensed into individual wells of a 384-well OptiPlate™ well (Perkin Elmer) by Echo® acoustic liquid transfer (Labcyte). 20 μL of 1.25 nM [^3H] SCH58261 ((7-(2-phenylethyl)-5-amino-2-(2-furyl)-pyrazolo-[4,3-e]-1,2,4-triazolo[1,5-c]pyrimidine)) in DPBS assay buffer (Dulbecco's phosphate buffered saline without calcium and magnesium, ThermoFisher Scientific, Cat. No. A1285601) supplemented with 10 mM MgCl2 was added. A2A receptor-expressing membranes were incubated with 20 μg/mL adenosine deaminase (Roche, Cat. No. 10 102 105 001) for 15 min at room temperature. The receptor-expressing membranes were then combined with wheat germ agglutinin-coated yttrium silicate SPA beads (GE Healthcare, Cat. No. RPNQ0023) in a ratio of 1:1000 (w/w) and incubated for 30 min at room temperature. 30 μL of the membrane/bead mixture (0.25 μg and 25 μg per well respectively) were added to the 384-well OptiPlate™ well. To define total and non-specific binding, wells containing 1% DMSO or 1 μM CGS15943 (Tocris Bioscience, Cat. No. 1699) respectively were also included in the experiment. The plate was incubated for 1 h at room temperature with agitation. The assay plate was then incubated for an h to allow the beads to settle before data were collected using a TopCount® (Perkin Elmer) scintillation counter. After normalization to total and non-specific binding, the percent effect at each compound concentration was calculated. The plot of percent effect versus the log of compound concentration was analyzed electronically using a 4-parameter logistic fit based on the Levenberg-Marquardt algorithm to generate IC50 values.
Molecule `COc1cccc2c1nc(N)n1nc(COCCF)nc21` [Example 4.12, 2-((2-fluoroethoxy)methyl)-7-methoxy-[1,2,4]triazolo[1,5-c]quinazolin-5-amine] gave an IC50 of 7.2 nM. As for `COc1cccc2c1nc(N)n1nc(CO[C@H](C)c3ccc(F)cc3)nc21` [Example 4.6, (R)-2-((1-(4-fluorophenyl)ethoxy)methyl)-7-methoxy-[1,2,4]triazolo[1,5-c]quinazolin-5-amine], the figure is 8.3 nM; as for `COc1cccc2c1nc(N)n1nc(COCc3ccsc3)nc21` [Example 4.3, 7-methoxy-2-((thiophen-3-ylmethoxy)methyl)-[1,2,4]triazolo[1,5-c]quinazolin-5-amine], 2.7 nM; as for `COc1cccc2c1nc(N)n1nc(COCc3csc4ccccc34)nc21` [Example 4.8, 2-((benzo[b]thiophen-3-ylmethoxy)methyl)-7-methoxy-[1,2,4]triazolo[1,5-c]quinazolin-5-amine], 2.9 nM. As for `COc1cccc2c1nc(N)n1nc(COCC(F)(F)F)nc21` [Example 4.11, 7-methoxy-2-((2,2,2-trifluoroethoxy)methyl)-[1,2,4]triazolo[1,5-c]quinazolin-5-amine], the figure is 3.5 nM; as for `COc1cccc2c1nc(N)n1nc(CSCc3ccc(F)cc3)nc21` [Example 1.3, 2-(((4-fluorobenzyl)thio)methyl)-7-methoxy-[1,2,4]triazolo[1,5-c]quinazolin-5-amine], 7.3 nM. As to `CCC#CCOCc1nc2c3cccc(OC)c3nc(N)n2n1` [Example 4.9, 7-methoxy-2-((pent-2-yn-1-yloxy)methyl)-[1,2,4]triazolo[1,5-c]quinazolin-5-amine], the IC50 came to 6.1 nM. This IC50 and that of the molecule before are within 1.5-fold of each other.

The molecule `COc1cccc2c1nc(N)n1nc(CO[C@@H](C)c3ccc(F)cc3)nc21` [Example 4.7, (S)-2-((1-(4-fluorophenyl)ethoxy)methyl)-7-methoxy-[1,2,4]triazolo[1,5-c]quinazolin-5-amine] gave an IC50 of 4.6 nM. `COc1cccc2c1nc(N)n1nc(CCCCl)nc21` [Example 1.1, 2-(3-chloropropyl)-7-methoxy-[1,2,4]triazolo[1,5-c]quinazolin-5-amine] showed a half-maximal inhibitory concentration (IC50) of 15.5 nM. This IC50 lies about 3.4-fold higher than the previous one. `COc1cccc2c1nc(N)n1nc(COCc3ccc(F)cc3)nc21` [Example 4.4, 2-(((4-fluorobenzyl)oxy)methyl)-7-methoxy-[1,2,4]triazolo[1,5-c]quinazolin-5-amine]: the concentration for half-maximal inhibition (IC50) came to 4.7 nM.
